Test results from PubChem BioAssay (NCI).
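Compound exposure: 48 hours, 5 concentrations, 96-well plates. The concentration for full growth arrest is given as TGI.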

How the values were obtained:
Experiment in all cases: NCI tumour cell line growth inhibition, 48 h
786-0 renal = system: 786-0 renal
A498 renal = system: A498 renal
A549 NSCLC = system: A549 NSCLC
ACHN renal = system: ACHN renal
CAKI-1 renal = system: CAKI-1 renal
CCRF-CEM leukemia = system: CCRF-CEM leukemia
COLO 205 colon = system: COLO 205 colon
DLD-1 colon = system: DLD-1 colon
DMS 114 small cell lung = system: DMS 114 small cell lung
DMS 273 small cell lung = system: DMS 273 small cell lung
EKVX NSCLC = system: EKVX NSCLC
HCC-2998 colon = system: HCC-2998 colon
HCT-116 colon = system: HCT-116 colon
HCT-15 colon = system: HCT-15 colon
HL-60(TB) leukemia = system: HL-60(TB) leukemia
HOP-18 NSCLC = system: HOP-18 NSCLC
HOP-62 NSCLC = system: HOP-62 NSCLC
HOP-92 NSCLC = system: HOP-92 NSCLC
HT29 colon = system: HT29 colon
IGROV1 ovarian = system: IGROV1 ovarian
K-562 leukemia = system: K-562 leukemia
KM12 colon = system: KM12 colon
KM20L2 colon = system: KM20L2 colon
LOX IMVI melanoma = system: LOX IMVI melanoma
LXFL 529 NSCLC = system: LXFL 529 NSCLC
M14 melanoma = system: M14 melanoma
M19-MEL melanoma = system: M19-MEL melanoma
MALME-3M melanoma = system: MALME-3M melanoma
MOLT-4 leukemia = system: MOLT-4 leukemia
NCI-H226 lung = system: NCI-H226 lung
NCI-H23 lung = system: NCI-H23 lung
NCI-H460 lung = system: NCI-H460 lung
NCI-H522 lung = system: NCI-H522 lung
OVCAR-3 ovarian = system: OVCAR-3 ovarian
OVCAR-4 ovarian = system: OVCAR-4 ovarian
OVCAR-5 ovarian = system: OVCAR-5 ovarian
RPMI-8226 leukemia = system: RPMI-8226 leukemia
RXF 393 renal = system: RXF 393 renal
RXF-631 renal = system: RXF-631 renal
SF-268 CNS = system: SF-268 CNS
SF-295 CNS = system: SF-295 CNS
SF-539 CNS = system: SF-539 CNS
SK-MEL-2 melanoma = system: SK-MEL-2 melanoma
SK-MEL-28 melanoma = system: SK-MEL-28 melanoma
SK-MEL-5 melanoma = system: SK-MEL-5 melanoma
SK-OV-3 ovarian = system: SK-OV-3 ovarian
SN12C renal = system: SN12C renal
SNB-19 CNS = system: SNB-19 CNS
SNB-75 CNS = system: SNB-75 CNS
SNB-78 CNS = system: SNB-78 CNS
SR leukemia = system: SR leukemia
SW-620 colon = system: SW-620 colon
TK-10 renal = system: TK-10 renal
U251 CNS = system: U251 CNS
UACC-257 melanoma = system: UACC-257 melanoma
UACC-62 melanoma = system: UACC-62 melanoma
UO-31 renal = system: UO-31 renal
OVCAR-8 ovarian = system: OVCAR-8 ovarian
XF 498 CNS = system: XF 498 CNS

COc1ccc(NC(=O)CC/C(CC(=O)C(C)(C)C)=N\NC(=O)C(=O)NN)cc1
TGI (786-0 renal): > 100 µM | TGI (A498 renal): > 100 µM | TGI (A549 NSCLC): > 100 µM | TGI (ACHN renal): > 100 µM | TGI (CAKI-1 renal): > 100 µM | TGI (CCRF-CEM leukemia): > 100 µM | TGI (COLO 205 colon): > 100 µM | TGI (DLD-1 colon): > 100 µM | TGI (DMS 114 small cell lung): > 100 µM | TGI (DMS 273 small cell lung): > 100 µM | TGI (EKVX NSCLC): > 100 µM | TGI (HCC-2998 colon): > 100 µM | TGI (HCT-116 colon): > 100 µM | TGI (HCT-15 colon): > 100 µM | TGI (HL-60(TB) leukemia): > 100 µM | TGI (HOP-18 NSCLC): > 100 µM | TGI (HOP-62 NSCLC): > 100 µM | TGI (HOP-92 NSCLC): > 100 µM | TGI (HT29 colon): > 100 µM | TGI (IGROV1 ovarian): > 100 µM | TGI (K-562 leukemia): > 100 µM | TGI (KM12 colon): > 100 µM | TGI (KM20L2 colon): > 100 µM | TGI (LOX IMVI melanoma): > 100 µM | TGI (LXFL 529 NSCLC): > 100 µM | TGI (M14 melanoma): > 100 µM | TGI (M19-MEL melanoma): > 100 µM | TGI (MALME-3M melanoma): > 100 µM | TGI (MOLT-4 leukemia): > 100 µM | TGI (NCI-H226 lung): > 100 µM | TGI (NCI-H23 lung): > 100 µM | TGI (NCI-H460 lung): > 100 µM | TGI (NCI-H522 lung): > 100 µM | TGI (OVCAR-3 ovarian): > 100 µM | TGI (OVCAR-4 ovarian): > 100 µM | TGI (OVCAR-5 ovarian): > 100 µM | TGI (RPMI-8226 leukemia): > 100 µM | TGI (RXF 393 renal): > 100 µM | TGI (RXF-631 renal): > 100 µM | TGI (SF-268 CNS): > 100 µM | TGI (SF-295 CNS): > 100 µM | TGI (SF-539 CNS): > 100 µM | TGI (SK-MEL-2 melanoma): > 100 µM | TGI (SK-MEL-28 melanoma): > 100 µM | TGI (SK-MEL-5 melanoma): > 100 µM | TGI (SK-OV-3 ovarian): > 100 µM | TGI (SN12C renal): > 100 µM | TGI (SNB-19 CNS): > 100 µM | TGI (SNB-75 CNS): > 100 µM | TGI (SNB-78 CNS): > 100 µM | TGI (SR leukemia): > 100 µM | TGI (SW-620 colon): > 100 µM | TGI (TK-10 renal): > 100 µM | TGI (U251 CNS): > 100 µM | TGI (UACC-257 melanoma): > 100 µM | TGI (UACC-62 melanoma): > 100 µM | TGI (UO-31 renal): > 100 µM

Cc1cccc(C)c1CO
TGI (786-0 renal): > 100 µM | TGI (A549 NSCLC): > 100 µM | TGI (ACHN renal): > 100 µM | TGI (CAKI-1 renal): > 100 µM | TGI (CCRF-CEM leukemia): > 100 µM | TGI (COLO 205 colon): > 100 µM | TGI (DLD-1 colon): > 100 µM | TGI (DMS 114 small cell lung): > 100 µM | TGI (DMS 273 small cell lung): > 100 µM | TGI (EKVX NSCLC): > 100 µM | TGI (HCC-2998 colon): > 100 µM | TGI (HCT-116 colon): > 100 µM | TGI (HCT-15 colon): > 100 µM | TGI (HL-60(TB) leukemia): > 100 µM | TGI (HOP-62 NSCLC): > 100 µM | TGI (HOP-92 NSCLC): > 100 µM | TGI (HT29 colon): > 100 µM | TGI (IGROV1 ovarian): > 100 µM | TGI (K-562 leukemia): > 100 µM | TGI (KM12 colon): > 100 µM | TGI (KM20L2 colon): > 100 µM | TGI (LOX IMVI melanoma): > 100 µM | TGI (LXFL 529 NSCLC): > 100 µM | TGI (M14 melanoma): > 100 µM | TGI (M19-MEL melanoma): > 100 µM | TGI (MALME-3M melanoma): > 100 µM | TGI (MOLT-4 leukemia): > 100 µM | TGI (NCI-H226 lung): > 100 µM | TGI (NCI-H23 lung): > 100 µM | TGI (NCI-H460 lung): > 100 µM | TGI (NCI-H522 lung): > 100 µM | TGI (OVCAR-3 ovarian): > 100 µM | TGI (OVCAR-4 ovarian): > 100 µM | TGI (OVCAR-5 ovarian): > 100 µM | TGI (OVCAR-8 ovarian): > 100 µM | TGI (RPMI-8226 leukemia): > 100 µM | TGI (RXF 393 renal): > 100 µM | TGI (RXF-631 renal): > 100 µM | TGI (SF-268 CNS): > 100 µM | TGI (SF-295 CNS): > 100 µM | TGI (SF-539 CNS): > 100 µM | TGI (SK-MEL-2 melanoma): > 100 µM | TGI (SK-OV-3 ovarian): > 100 µM | TGI (SN12C renal): > 100 µM | TGI (SNB-19 CNS): > 100 µM | TGI (SNB-75 CNS): > 100 µM | TGI (SNB-78 CNS): > 100 µM | TGI (SR leukemia): > 100 µM | TGI (SW-620 colon): > 100 µM | TGI (U251 CNS): > 100 µM | TGI (UACC-257 melanoma): > 100 µM | TGI (UACC-62 melanoma): > 100 µM | TGI (UO-31 renal): > 100 µM | TGI (XF 498 CNS): > 100 µM

O=C1C=CC(=O)C12CCc1ccccc12
TGI (786-0 renal): > 100 µM | TGI (A498 renal): > 100 µM | TGI (A549 NSCLC): > 100 µM | TGI (ACHN renal): > 100 µM | TGI (CAKI-1 renal): > 31.6 µM | TGI (CCRF-CEM leukemia): > 95.2 µM | TGI (COLO 205 colon): > 100 µM | TGI (DLD-1 colon): > 100 µM | TGI (DMS 114 small cell lung): > 100 µM | TGI (DMS 273 small cell lung): > 100 µM | TGI (EKVX NSCLC): > 100 µM | TGI (HCC-2998 colon): > 100 µM | TGI (HCT-116 colon): > 100 µM | TGI (HCT-15 colon): > 100 µM | TGI (HL-60(TB) leukemia): > 60.6 µM | TGI (HOP-18 NSCLC): 97.4 µM | TGI (HOP-62 NSCLC): > 100 µM | TGI (HOP-92 NSCLC): > 100 µM | TGI (HT29 colon): > 100 µM | TGI (IGROV1 ovarian): > 100 µM | TGI (K-562 leukemia): > 85.1 µM | TGI (KM12 colon): > 100 µM | TGI (KM20L2 colon): > 100 µM | TGI (LOX IMVI melanoma): > 100 µM | TGI (LXFL 529 NSCLC): > 100 µM | TGI (M14 melanoma): > 100 µM | TGI (M19-MEL melanoma): > 100 µM | TGI (MALME-3M melanoma): > 100 µM | TGI (MOLT-4 leukemia): > 100 µM | TGI (NCI-H226 lung): > 100 µM | TGI (NCI-H23 lung): > 100 µM | TGI (NCI-H460 lung): > 100 µM | TGI (NCI-H522 lung): 33.2 µM | TGI (OVCAR-3 ovarian): > 100 µM | TGI (OVCAR-4 ovarian): > 100 µM | TGI (OVCAR-5 ovarian): > 100 µM | TGI (OVCAR-8 ovarian): > 100 µM | TGI (RPMI-8226 leukemia): 45.8 µM | TGI (RXF 393 renal): > 100 µM | TGI (RXF-631 renal): > 100 µM | TGI (SF-268 CNS): > 100 µM | TGI (SF-295 CNS): > 31.6 µM | TGI (SF-539 CNS): > 100 µM | TGI (SK-MEL-2 melanoma): > 100 µM | TGI (SK-MEL-28 melanoma): > 100 µM | TGI (SK-MEL-5 melanoma): > 100 µM | TGI (SK-OV-3 ovarian): > 100 µM | TGI (SN12C renal): > 100 µM | TGI (SNB-19 CNS): > 100 µM | TGI (SNB-75 CNS): > 100 µM | TGI (SNB-78 CNS): > 100 µM | TGI (SW-620 colon): > 100 µM | TGI (TK-10 renal): > 100 µM | TGI (U251 CNS): > 100 µM | TGI (UACC-257 melanoma): > 100 µM | TGI (UACC-62 melanoma): > 100 µM | TGI (UO-31 renal): > 100 µM | TGI (XF 498 CNS): > 100 µM
